This is an account of results in US20220372031A1, “NOVEL TRICYCLIC AROMATIC HETEROCYCLIC COMPOUND, PREPARATION METHOD THEREFOR, PHARMACEUTICAL COMPOSITION AND APPLICATION THEREOF” (SHANGHAI LONGWOOD BIOPHARMACEUTICALS CO., LTD., priority 2019, published 2022).

Each structure is given as a SMILES string.

T1 sequence (Q9NZQ7 19-238): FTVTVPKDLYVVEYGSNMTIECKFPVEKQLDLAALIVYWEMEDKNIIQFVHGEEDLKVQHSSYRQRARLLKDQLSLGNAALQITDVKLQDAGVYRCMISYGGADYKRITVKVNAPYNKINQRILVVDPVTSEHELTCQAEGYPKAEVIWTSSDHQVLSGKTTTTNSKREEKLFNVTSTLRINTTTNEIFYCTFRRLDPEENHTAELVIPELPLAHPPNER

This assay addresses T1, PD-1/PD-L1 (Homo sapiens, UniProt Q9NZQ7).
T1 construct: Recombinant human PD-L1 protein (19-238) with a His-tagged at the C-terminus; purchased AcroBiosystems PD1-H5229 (PD-L1); PD1-H5257 (PD-1)
Description: PD-1/PD-L1 homogeneous time-resolved fluorescence (HTRF) binding assay. The note with it: PD-1/PD-L1 HTRF binding, ~3 nM PD1, 10 nM PD-L1, 25° C., PBS pH 7.4. On the procedure:
Assays were performed in standard black 384-well polystyrene plates and a final volume was 20 μL. The inhibitor was first serially diluted with DMSO and added to the wells of the plate, followed by the addition of other reaction components. The final concentration of DMSO in the assay was 1%. Assays were performed at 25° C. in PBS buffer (pH 7.4) containing 0.05% Tween-20 and 0.1% BSA. Recombinant human PD-L1 protein (19-238) with a His-tagged at the C-terminus was purchased from AcroBiosystems (PD1-H5229). Recombinant human PD-1 protein (25-167) with an Fc tag at the C-terminus was also purchased from AcroBiosystems (PD1-H5257). The PD-L1 and PD-1 proteins were diluted in assay buffer and then […] of the solution was extracted and added to the wells of the plate. Plates were centrifuged and proteins and inhibitors were preincubated for 40 minutes. After incubation, 0.1 μl of HTRF detection buffer containing europium […] labeled anti-human IgG (PerkinElmer-AD0212), Fc-specific and anti-His SureLight®-Allophycocyanin (APC, PerkinElmer-AD0059H) conjugated antibodies was added. After centrifugation, the plates were incubated at 25° C. for 60 minutes. Data was read in a PHERAstar FS plate reader (665 nm/620 nm ratio). Final concentrations in the assay were ˜3 nM PD1, 10 nM PD-L1, 1 nM europium anti-human IgG, and 20 nM anti-His-allophycocyanin. Activity data were fitted using GraphPad Prism 5_0 software to derive IC50 values for inhibitors.
Background: In TR-FRET formats the signal depends on donor and acceptor labels being close together.
As usually defined, the IC50 is the point on the concentration scale where inhibition reaches its midpoint. Read a high IC50 as weaker potency. Take `COc1nc(-c2cccc(-c3cccc(-c4nc5cc6c(c(C#N)c5o4)CC[C@H]6N4CC[C@@H](C(=O)NS(=O)(=O)C5(C)CC5)C4)c3C)c2C)cnc1CN1CC[C@@H](O)C1` [Compound 084]: the IC50 was at most 10 nM.
Then `COc1nc(-c2cccc(-c3cccc(-c4nc5cc6c(c(C#N)c5o4)CC[C@H]6N4CC[C@@H](C(=O)NS(=O)(=O)C5(C)CC5)C4)c3Cl)c2Cl)cnc1CN1CC[C@@H](O)C1` [Compound 086], with at most 10 nM.
The compound `N#Cc1c2c(cc3nc(-c4cccc(-c5cccc(Nc6nc(C(F)F)nc7cc(CN8CC[C@@H](O)C8)cnc67)c5Cl)c4Cl)oc13)[C@H](N1CC[C@@H](C(=O)NS(=O)(=O)C3CC3)C1)CC2` [Compound 087] came in with an IC50 of at most 10 nM.
The figure for `CC1(S(=O)(=O)NC(=O)[C@@H]2CCN([C@@H]3CCc4c3cc3nc(-c5cccc(-c6cccc(Nc7nc(C(F)F)nc8cc(CN9CC[C@@H](O)C9)cnc78)c6Cl)c5Cl)oc3c4C#N)C2)CC1` [Compound 088] is at most 10 nM; for `COc1nc(-c2cccc(-c3cccc(-c4nc5cc6c(c(C#N)c5o4)CC[C@H]6N4CC[C@@H](C(=O)O)C4)c3Cl)c2Cl)cnc1CN1CC[C@@H](O)C1` [Compound 162] it is at most 10 nM; for `COc1nc(-c2cccc(-c3cccc(-c4nc5cc6c(c(C#N)c5o4)CC[C@H]6N4CC[C@@H](C(=O)O)C4)c3Cl)c2C)cnc1CN1CC[C@@H](O)C1` [Compound 175] it is at most 10 nM.
Then `COc1nc(-c2cccc(-c3cccc(-c4nc5cc6c(c(C#N)c5o4)CC[C@H]6N4CC[C@@H](C(=O)O)C4)c3C)c2Cl)cnc1CN1CC[C@@H](O)C1` [Compound 182], with at most 10 nM.
In turn, `COc1nc(-c2cccc(-c3cccc(-c4nc5cc6c(c(C#N)c5o4)CC[C@H]6N4CC[C@@H](C(=O)NS(=O)(=O)C5CC5)C4)c3Cl)c2C)cnc1CN1CC[C@@H](O)C1` [Compound 231] showed an IC50 of at most 10 nM.
`COc1nc(-c2cccc(-c3cccc(-c4nc5cc6c(c(C#N)c5o4)CC[C@H]6N4CC[C@@H](C(=O)NS(=O)(=O)C5CC5)C4)c3C)c2Cl)cnc1CN1CC[C@@H](O)C1` [Compound 232] returned an IC50 of at most 10 nM.
Take `COc1nc(-c2cccc(-c3cccc(-c4nc5cc6c(c(C#N)c5o4)CC[C@H]6N4CC[C@@H](C(=O)NS(=O)(=O)C5(C)CC5)C4)c3Cl)c2C)cnc1CN1CC[C@@H](O)C1` [Compound 233]: the half-maximal inhibitory concentration (IC50) is at most 10 nM.
The figure for `COc1nc(-c2cccc(-c3cccc(-c4nc5cc6c(c(C#N)c5o4)CC[C@H]6N4CC[C@@H](C(=O)NS(=O)(=O)C5(C)CC5)C4)c3C)c2Cl)cnc1CN1CC[C@@H](O)C1` [Compound 234] is at most 10 nM.
Then `Cc1c(-c2nc3cc4c(c(C#N)c3o2)CC[C@H]4N2CC[C@@H](C(=O)O)C2)cccc1-c1cccc(Nc2nccc3cc(CN4CC[C@@H](O)C4)cnc23)c1Cl` [Compound 235], with at most 10 nM; and `N#Cc1c2c(cc3nc(-c4cccc(-c5cccc(Nc6nccc7cc(CN8CC[C@@H](O)C8)cnc67)c5Cl)c4Cl)oc13)[C@H](N1CC[C@@H](C(=O)NS(=O)(=O)C3CC3)C1)CC2` [Compound 236], with at most 10 nM.
Compound `Cc1c(Nc2nccc3cc(CN4CC[C@@H](O)C4)cnc23)cccc1-c1cccc(-c2nc3cc4c(c(C#N)c3o2)CC[C@H]4N2CC[C@@H](C(=O)NS(=O)(=O)C3CC3)C2)c1Cl` [Compound 237] registered an IC50 of at most 10 nM.
The figure for `Cc1c(-c2nc3cc4c(c(C#N)c3o2)CC[C@H]4N2CC[C@@H](C(=O)NS(=O)(=O)C3CC3)C2)cccc1-c1cccc(Nc2nccc3cc(CN4CC[C@@H](O)C4)cnc23)c1Cl` [Compound 238] is at most 10 nM; for `Cc1c(Nc2nccc3cc(CN4CC[C@@H](O)C4)cnc23)cccc1-c1cccc(-c2nc3cc4c(c(C#N)c3o2)CC[C@H]4N2CC[C@@H](C(=O)NS(=O)(=O)C3(C)CC3)C2)c1C` [Compound 239] it is at most 10 nM.
Then `CC1(S(=O)(=O)NC(=O)[C@@H]2CCN([C@@H]3CCc4c3cc3nc(-c5cccc(-c6cccc(Nc7nccc8cc(CN9CC[C@@H](O)C9)cnc78)c6Cl)c5Cl)oc3c4C#N)C2)CC1` [Compound 240], with at most 10 nM; and `Cc1c(Nc2nccc3cc(CN4CC[C@@H](O)C4)cnc23)cccc1-c1cccc(-c2nc3cc4c(c(C#N)c3o2)CC[C@H]4N2CC[C@@H](C(=O)NS(=O)(=O)C3(C)CC3)C2)c1Cl` [Compound 241], with at most 10 nM; and `Cc1c(-c2nc3cc4c(c(C#N)c3o2)CC[C@H]4N2CC[C@@H](C(=O)NS(=O)(=O)C3(C)CC3)C2)cccc1-c1cccc(Nc2nccc3cc(CN4CC[C@@H](O)C4)cnc23)c1Cl` [Compound 242], with at most 10 nM.
The figure for `Cc1c(Nc2nccc3cc(CN4CC[C@@H](O)C4)cnc23)cccc1-c1cccc(-c2cc3cc4c(c(C#N)c3o2)CC[C@@H]4N2CC[C@@H](C(=O)O)C2)c1C` [Compound 243] is at most 10 nM; for `Cc1c(Nc2nccc3cc(CN4CC[C@@H](O)C4)cnc23)cccc1-c1cccc(-c2cc3cc4c(c(C#N)c3o2)CC[C@H]4N2CC[C@@H](C(=O)O)C2)c1C` [Compound 244] it is at most 10 nM.
Regarding `N#Cc1c2c(cc3cc(-c4cccc(-c5cccc(Nc6nccc7cc(CN8CC[C@@H](O)C8)cnc67)c5Cl)c4Cl)oc13)[C@H](N1CC[C@@H](C(=O)O)C1)CC2` [Compound 245], the IC50 is at most 10 nM.
Then `Cc1c(Nc2nccc3cc(CN4CC[C@@H](O)C4)cnc23)cccc1-c1cccc(-c2cc3cc4c(c(C#N)c3o2)CC[C@H]4N2CC[C@@H](C(=O)O)C2)c1Cl` [Compound 246], with at most 10 nM.
The figure for `Cc1c(-c2cc3cc4c(c(C#N)c3o2)CC[C@H]4N2CC[C@@H](C(=O)O)C2)cccc1-c1cccc(Nc2nccc3cc(CN4CC[C@@H](O)C4)cnc23)c1Cl` [Compound 247] is at most 10 nM; for `Cc1c(Nc2nccc3cc(CN4CC[C@@H](O)C4)cnc23)cccc1-c1cccc(-c2cc3cc4c(c(C#N)c3o2)CC[C@H]4N2CC[C@@H](C(=O)NS(=O)(=O)C3CC3)C2)c1C` [Compound 248] it is at most 10 nM.
Then `N#Cc1c2c(cc3cc(-c4cccc(-c5cccc(Nc6nccc7cc(CN8CC[C@@H](O)C8)cnc67)c5Cl)c4Cl)oc13)[C@H](N1CC[C@@H](C(=O)NS(=O)(=O)C3CC3)C1)CC2` [Compound 249], with at most 10 nM; and `Cc1c(Nc2nccc3cc(CN4CC[C@@H](O)C4)cnc23)cccc1-c1cccc(-c2cc3cc4c(c(C#N)c3o2)CC[C@H]4N2CC[C@@H](C(=O)NS(=O)(=O)C3CC3)C2)c1Cl` [Compound 250], with at most 10 nM; and `Cc1c(-c2cc3cc4c(c(C#N)c3o2)CC[C@H]4N2CC[C@@H](C(=O)NS(=O)(=O)C3CC3)C2)cccc1-c1cccc(Nc2nccc3cc(CN4CC[C@@H](O)C4)cnc23)c1Cl` [Compound 251], with at most 10 nM.
`Cc1c(Nc2nccc3cc(CN4CC[C@@H](O)C4)cnc23)cccc1-c1cccc(-c2cc3cc4c(c(C#N)c3o2)CC[C@H]4N2CC[C@@H](C(=O)NS(=O)(=O)C3(C)CC3)C2)c1C` [Compound 252] had an IC50 of at most 10 nM.
`CC1(S(=O)(=O)NC(=O)[C@@H]2CCN([C@@H]3CCc4c3cc3cc(-c5cccc(-c6cccc(Nc7nccc8cc(CN9CC[C@@H](O)C9)cnc78)c6Cl)c5Cl)oc3c4C#N)C2)CC1` [Compound 253] returned an IC50 of at most 10 nM.
`COc1nc(-c2cccc(-c3cccc(-c4cc5cc6c(c(C#N)c5o4)CC[C@H]6N4CC[C@@H](C(=O)O)C4)c3C)c2C)cnc1CN1CC[C@@H](O)C1` [Compound 256] displayed a half-inhibitory concentration (IC50) of at most 10 nM.
Then `COc1nc(-c2cccc(-c3cccc(-c4cc5cc6c(c(C#N)c5o4)CC[C@H]6N4CC[C@@H](C(=O)O)C4)c3Cl)c2Cl)cnc1CN1CC[C@@H](O)C1` [Compound 257], with at most 10 nM; and `COc1nc(-c2cccc(-c3cccc(-c4cc5cc6c(c(C#N)c5o4)CC[C@H]6N4CC[C@@H](C(=O)O)C4)c3Cl)c2C)cnc1CN1CC[C@@H](O)C1` [Compound 258], with at most 10 nM; and `COc1nc(-c2cccc(-c3cccc(-c4cc5cc6c(c(C#N)c5o4)CC[C@H]6N4CC[C@@H](C(=O)O)C4)c3C)c2Cl)cnc1CN1CC[C@@H](O)C1` [Compound 259], with at most 10 nM.
For `COc1nc(-c2cccc(-c3cccc(-c4cc5cc6c(c(C#N)c5o4)CC[C@H]6N4CC[C@@H](C(=O)NS(=O)(=O)C5CC5)C4)c3C)c2C)cnc1CN1CC[C@@H](O)C1` [Compound 260], the half-inhibitory concentration (IC50) is at most 10 nM.
For `COc1nc(-c2cccc(-c3cccc(-c4cc5cc6c(c(C#N)c5o4)CC[C@H]6N4CC[C@@H](C(=O)NS(=O)(=O)C5CC5)C4)c3Cl)c2Cl)cnc1CN1CC[C@@H](O)C1` [Compound 261], the IC50 was at most 10 nM.
Turning to `COc1nc(-c2cccc(-c3cccc(-c4cc5cc6c(c(C#N)c5o4)CC[C@H]6N4CC[C@@H](C(=O)NS(=O)(=O)C5CC5)C4)c3Cl)c2C)cnc1CN1CC[C@@H](O)C1` [Compound 262], the IC50 is at most 10 nM.
In the case of `COc1nc(-c2cccc(-c3cccc(-c4cc5cc6c(c(C#N)c5o4)CC[C@H]6N4CC[C@@H](C(=O)NS(=O)(=O)C5CC5)C4)c3C)c2Cl)cnc1CN1CC[C@@H](O)C1` [Compound 263], the IC50 is at most 10 nM.
